Results on six compounds are retold here after US5021411A, “Imidazodiazepine derivatives” (Hoffmann-La Roche Inc., priority 1988, dated 1991).

Molecules are shown by their SMILES.

This assay deals with central benzodiazepine receptors (specific benzodiazepine receptors in the cerebral cortex). In words: Inhibition of the specific binding of tritiated diazepam at the specific benzodiazepine receptors in the cerebral cortex (affinity to central benzodiazepine receptors). As to conditions: read-out: Affinity to benzodiazepine receptors IC 50. The source says: The affinity of compounds of formula I to the central benzodiazepine receptors has been determined according to the method described in Life Science 20, 2101-2110 (1977) and Science 198, 849-851 (1977). According to this method, the inhibition of the binding of tritiated diazepam at the specific benzodiazepine receptors in the cerebral cortex by the respective test substances is ascertained. The IC50 ("50% inhibiting concentration") is that concentration of the respective test substance which brings about a 50 percent inhibition of the specific binding of the tritiated diazepam at the specific benzodiazepine receptors in the cerebral cortex.
For `CN1Cc2c(C#CCOCC3CC3)ncn2-c2cccc(Cl)c2C1=O` [A, 7-Chloro-3-[3-(cyclopropylmethoxy)-1-propynyl]-4,5-dihydro-5-methyl-6H-imidazo[1,5-a][1,4]benzodiazepin-6-one], the IC50 is 1.4 nM.

Regarding `CC(=O)OCC#Cc1ncn2c1CN(C)C(=O)c1c(Cl)cccc1-2` [B, 3-(7-chloro-5,6-dihydro-5-methyl-6-oxo-4H-imidazo[1,5-a][1,4]benzodiazepin-3-yl)-2-propynyl acetate], the IC50 is 2.6 nM. As for `CN1Cc2c(C#CC(C)(C)OCC3CC3)ncn2-c2cccc(Cl)c2C1=O` [C, 7-chloro-3-[3-(cyclopropylmethoxy)-3-methyl-1-butynyl]-4,5-dihydro-5-methyl-6H-imidazo[1,5-a][1,4]benzodiazepin-6-one], the figure is 5 nM; as for `C/C(C#Cc1ncn2c1CN(C)C(=O)c1c(Cl)cccc1-2)=C/CO` [D, 7-chloro-4,5-dihydro-3-[(Z)-5-hydroxy-3-methyl-3-penten-1-ynyl]-5-methyl-6H-imidazo[1,5-a][1,4]-benzodiazepin-6-one], 1.4 nM; as for `C=CC(C)(O)C#Cc1ncn2c1CN(C)C(=O)c1c(Cl)cccc1-2` (stereo not drawn) [E, 7-chloro-4,5-dihydro-3-(3-hydroxy-3-methyl-4-penten-1-ynyl)-5-methyl-6H-imidazo[1,5-a][1,4]benzodiazepin-6-one], 3.7 nM.

On to `C/C(C#Cc1ncn2c1CN(C)C(=O)c1c(Cl)cccc1-2)=C\CO` [F, 7-chloro-4,5-dihydro-3-[(E)-5-hydroxy-3-methyl-3-penten-1-ynyl]-5-methyl-6H-imidazo[1,5-a][1,4]-benzodiazepin-6-one], for which the IC50 was found to be 2.2 nM.
